Test system: 699152-130-R-J1-PDC complex spheroid viability
Assay: Anticancer human tumor 699152-130-R-J1-PDC patient-derived pancreatic carcinoma cell line growth inhibition [POLQ]
Conditions: for IC50: curve of first compound; for viability, T/C: stronger effect = lower value
Method in brief: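 Patient-derived tumour cells were co-cultured with HUVEC and mesenchymal stem cells as multicellular spheroids at 37 °C. They were treated with POLQ inhibitors (novobiocin, ART-558, RP6685) alone or combined with other agents. Top concentrations were at or near clinical Cmax (otherwise 10 microM; SN-38 at 1 microM), decreasing in half-log steps.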

[1] = second compound 0.0316 µM, first compound 0.00316 µM
[2] = second compound 0.0316 µM, first compound 0.01 µM
[3] = second compound 0.0316 µM, first compound 0.0316 µM
[4] = second compound 0.0316 µM, first compound 0.1 µM
[5] = second compound 0.0316 µM, first compound 0.316 µM
[6] = second compound 0.0316 µM, first compound 1 µM
[7] = second compound 0.1 µM, first compound 0.00316 µM
[8] = second compound 0.1 µM, first compound 0.01 µM
[9] = second compound 0.1 µM, first compound 0.0316 µM
[10] = second compound 0.1 µM, first compound 0.1 µM
[11] = second compound 0.1 µM, first compound 0.316 µM
[12] = second compound 0.1 µM, first compound 1 µM
[13] = second compound 0.316 µM, first compound 0.00316 µM
[14] = second compound 0.316 µM, first compound 0.01 µM
[15] = second compound 0.316 µM, first compound 0.0316 µM
[16] = second compound 0.316 µM, first compound 0.1 µM
[17] = second compound 0.316 µM, first compound 0.316 µM
[18] = second compound 0.316 µM, first compound 1 µM
[19] = second compound 1 µM, first compound 0.00316 µM
[20] = second compound 1 µM, first compound 0.01 µM
[21] = second compound 1 µM, first compound 0.0316 µM
[22] = second compound 1 µM, first compound 0.1 µM
[23] = second compound 1 µM, first compound 0.316 µM
[24] = second compound 1 µM, first compound 1 µM
[25] = second compound 3.16 µM, first compound 0.00316 µM
[26] = second compound 3.16 µM, first compound 0.01 µM
[27] = second compound 3.16 µM, first compound 0.0316 µM
[28] = second compound 3.16 µM, first compound 0.1 µM
[29] = second compound 3.16 µM, first compound 0.316 µM
[30] = second compound 3.16 µM, first compound 1 µM
[31] = second compound 10 µM, first compound 0.00316 µM
[32] = second compound 10 µM, first compound 0.01 µM
[33] = second compound 10 µM, first compound 0.0316 µM
[34] = second compound 10 µM, first compound 0.1 µM
[35] = second compound 10 µM, first compound 0.316 µM
[36] = second compound 10 µM, first compound 1 µM
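Also: spheroids exposed to agents for 7 days before viability reading.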
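For viability, T/C in this document: percent of DMSO vehicle control viability so 100% = vehicle and 0% = no viable signal.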

## C=CCn1c(=O)c2cnc(Nc3ccc(N4CCN(C)CC4)cc3)nc2n1-c1cccc(C(C)(C)O)n1 + Cc1cccc(N(C)C(=O)C2C(O)CCN2c2nc(C)cc(C(F)(F)F)c2C#N)c1
Second compound 0.0316 µM
  IC50: > 1 µM
Second compound 0.1 µM
  IC50: > 1 µM
Second compound 0.316 µM
  IC50: > 1 µM
Second compound 1 µM
  IC50: > 1 µM
Second compound 3.16 µM
  IC50: > 1 µM
Second compound 10 µM
  IC50: > 1 µM
[1]
  viability, T/C: 94.8%
[2]
  viability, T/C: 91%
[3]
  viability, T/C: 87.4%
[4]
  viability, T/C: 86.9%
[5]
  viability, T/C: 80.3%
[6]
  viability, T/C: 73%
[7]
  viability, T/C: 87.9%
[8]
  viability, T/C: 90.2%
[9]
  viability, T/C: 95.6%
[10]
  viability, T/C: 83.9%
[11]
  viability, T/C: 82.2%
[12]
  viability, T/C: 68.7%
[13]
  viability, T/C: 88.8%
[14]
  viability, T/C: 91.4%
[15]
  viability, T/C: 89.4%
[16]
  viability, T/C: 82.7%
[17]
  viability, T/C: 85.4%
[18]
  viability, T/C: 69.8%
[19]
  viability, T/C: 96.5%
[20]
  viability, T/C: 85.2%
[21]
  viability, T/C: 102%
[22]
  viability, T/C: 84%
[23]
  viability, T/C: 80.2%
[24]
  viability, T/C: 67%
[25]
  viability, T/C: 83.3%
[26]
  viability, T/C: 107%
[27]
  viability, T/C: 97.6%
[28]
  viability, T/C: 99.2%
[29]
  viability, T/C: 81.7%
[30]
  viability, T/C: 65.4%
[31]
  viability, T/C: 84.8%
[32]
  viability, T/C: 89.3%
[33]
  viability, T/C: 89.2%
[34]
  viability, T/C: 86.7%
[35]
  viability, T/C: 78.1%
[36]
  viability, T/C: 73.9%

## Cn1ncnc1[C@H]1c2n[nH]c(=O)c3cc(F)cc(c23)N[C@@H]1c1ccc(F)cc1 + COC1C(OC(N)=O)C(O)C(Oc2ccc3c(O)c(NC(=O)c4ccc(O)c(CC=C(C)C)c4)c(=O)oc3c2C)OC1(C)C
Second compound 0.0316 µM
  IC50: > 0.1 µM
Second compound 0.1 µM
  IC50: > 0.1 µM
Second compound 0.316 µM
  IC50: > 0.1 µM
Second compound 1 µM
  IC50: > 0.1 µM
Second compound 3.16 µM
  IC50: > 0.1 µM
Second compound 10 µM
  IC50: > 0.1 µM
Second compound 0.0316 µM, first compound 0.000316 µM
  viability, T/C: 114%
Second compound 0.0316 µM, first compound 0.001 µM
  viability, T/C: 86.2%
[1]
  viability, T/C: 101%
[2]
  viability, T/C: 93.4%
[3]
  viability, T/C: 92.9%
[4]
  viability, T/C: 84.8%
Second compound 0.1 µM, first compound 0.000316 µM
  viability, T/C: 102%
Second compound 0.1 µM, first compound 0.001 µM
  viability, T/C: 105%
[7]
  viability, T/C: 87.1%
[8]
  viability, T/C: 111%
[9]
  viability, T/C: 85%
[10]
  viability, T/C: 80%
Second compound 0.316 µM, first compound 0.000316 µM
  viability, T/C: 101%
Second compound 0.316 µM, first compound 0.001 µM
  viability, T/C: 99.5%
[13]
  viability, T/C: 92.3%
[14]
  viability, T/C: 103%
[15]
  viability, T/C: 87.8%
[16]
  viability, T/C: 83.6%
Second compound 1 µM, first compound 0.000316 µM
  viability, T/C: 119%
Second compound 1 µM, first compound 0.001 µM
  viability, T/C: 107%
[19]
  viability, T/C: 101%
[20]
  viability, T/C: 102%
[21]
  viability, T/C: 93.9%
[22]
  viability, T/C: 82.5%
Second compound 3.16 µM, first compound 0.000316 µM
  viability, T/C: 95.3%
Second compound 3.16 µM, first compound 0.001 µM
  viability, T/C: 89.3%
[25]
  viability, T/C: 90.9%
[26]
  viability, T/C: 96.9%
[27]
  viability, T/C: 90.8%
[28]
  viability, T/C: 80.8%
Second compound 10 µM, first compound 0.000316 µM
  viability, T/C: 98.7%
Second compound 10 µM, first compound 0.001 µM
  viability, T/C: 105%
[31]
  viability, T/C: 93.9%
[32]
  viability, T/C: 103%
[33]
  viability, T/C: 88.4%
[34]
  viability, T/C: 90.4%

## CCCS(=O)(=O)Nc1ccc(F)c(C(=O)c2c[nH]c3ncc(-c4ccc(Cl)cc4)cc23)c1F + COC1C(OC(N)=O)C(O)C(Oc2ccc3c(O)c(NC(=O)c4ccc(O)c(CC=C(C)C)c4)c(=O)oc3c2C)OC1(C)C
Second compound 0.0316 µM
  IC50: > 10 µM
Second compound 0.1 µM
  IC50: > 10 µM
Second compound 0.316 µM
  IC50: > 10 µM
Second compound 1 µM
  IC50: > 10 µM
Second compound 3.16 µM
  IC50: > 10 µM
Second compound 10 µM
  IC50: > 10 µM
[3]
  viability, T/C: 117%
[4]
  viability, T/C: 105%
[5]
  viability, T/C: 125%
[6]
  viability, T/C: 151%
Second compound 0.0316 µM, first compound 3.16 µM
  viability, T/C: 172%
Second compound 0.0316 µM, first compound 10 µM
  viability, T/C: 64.7%
[9]
  viability, T/C: 115%
[10]
  viability, T/C: 109%
[11]
  viability, T/C: 126%
[12]
  viability, T/C: 159%
Second compound 0.1 µM, first compound 3.16 µM
  viability, T/C: 191%
Second compound 0.1 µM, first compound 10 µM
  viability, T/C: 64.1%
[15]
  viability, T/C: 108%
[16]
  viability, T/C: 112%
[17]
  viability, T/C: 134%
[18]
  viability, T/C: 149%
Second compound 0.316 µM, first compound 3.16 µM
  viability, T/C: 177%
Second compound 0.316 µM, first compound 10 µM
  viability, T/C: 59.9%
[21]
  viability, T/C: 105%
[22]
  viability, T/C: 115%
[23]
  viability, T/C: 126%
[24]
  viability, T/C: 147%
Second compound 1 µM, first compound 3.16 µM
  viability, T/C: 171%
Second compound 1 µM, first compound 10 µM
  viability, T/C: 64.1%
[27]
  viability, T/C: 105%
[28]
  viability, T/C: 121%
[29]
  viability, T/C: 124%
[30]
  viability, T/C: 145%
Second compound 3.16 µM, first compound 3.16 µM
  viability, T/C: 281%
Second compound 3.16 µM, first compound 10 µM
  viability, T/C: 68.3%
[33]
  viability, T/C: 107%
[34]
  viability, T/C: 114%
[35]
  viability, T/C: 123%
[36]
  viability, T/C: 148%
Second compound 10 µM, first compound 3.16 µM
  viability, T/C: 175%
Second compound 10 µM, first compound 10 µM
  viability, T/C: 66.4%

Reference: PubChem BioAssay AID1963835 (Molecular Pharmacology Branch, DTP, NCI, 2024)
